Key:
VTA dopamine neurons = experiment: Electrophysiology: spontaneous firing of VTA dopamine neurons in slices; type: cell-based, C57Bl/6J mice; settings: 10 nM, bath applied 5 min; positive control
Method: All electrophysiological recordings were performed in slice preparations from C57Bl/6J mice (P21-P30). Briefly, mice were anaesthetized with isoflurane and transcardially perfused with an ice-cold sucrose solution containing (in mM): 50 sucrose, 26.2 NaHCO3, 1.25 glucose, 4.9 MgCl2, 3 kynurenic acid, 0.1 CaCl2, and 1.32 ascorbic acid in bicarbonate-buffered solution (aCSF, described below). Mice were then decapitated and brains were extracted. […] Cells were visualized on an upright microscope using “Dodt-type” gradient contrast infrared optics ([Dodt et al., 2002]) and whole-cell recordings were made using a MultiClamp 700B amplifier (Axon Instruments, Union City, CA, United States). Recording electrodes (3–5 MΩ) were filled with (in mM): 136 potassium-D-gluconate, 4 MgCl2, 1.1 HEPES, 5, EGTA, 10 sodium creatine phosphate, 3.4 Mg-ATP, and 0.1 Na2GTP. […] Spontaneous firing activity was recorded in current-clamp mode. […] Firing data for all neurons was analyzed with the MiniAnalysis program (Synaptosoft) using the same criteria. Drug-induced changes in firing are expressed as a percentage of baseline. Drug effects were calculated by comparing the response during the baseline/pre-drug period to the response 5 min after onset of drug administration. […] We therefore assessed the effects of compound 22 on firing rate of dopamine neurons. […]

mouse TAAR1 = biological target: mouse TAAR1; parameters: method as in Bradaia et al., 2009; settings: ref Bradaia et al., 2009; read-out: affinity for the mouse TAAR1; cited from earlier work
human TAAR1 receptor = tested on: human TAAR1 receptor; parameters: method as in Bradaia et al., 2009; settings: ref Bradaia et al., 2009; cited from earlier work

In the case of `CCOc1cccc(NC(=O)c2ccc(N3CCCC3)c(C(F)(F)F)c2)c1` [EPPTB], the “increase in firing of dopamine neurons” value (VTA dopamine neurons) is listed as 74%, the Ki (mouse TAAR1) is listed as 0.9 nM and the “binding to the human TAAR1 receptor” value (human TAAR1 receptor) is listed as “does not bind”.
